Experimental data taken from the RepoRT retention time repository.

Experiment: Waters ACQUITY UPLC BEH Shield RP18, 100 × 2.1 mm, 1.7 µm, 40 °C, 0.4 mL/min, estimated dead time 0.55 min; A: water + 0.1% formic acid; B: acetonitrile; gradient (min/%B) 0/2 10/18 15/28 22/40 32/67
Conditions: stereoisomer not certain

Compound	LC retention time
O=C1CC(c2ccc(OC3OC(CO)C(O)C(O)C3OC3OCC(O)(CO)C3O)cc2)Oc2cc(O)ccc21 (configuration not stated)	10.2 min
CC1(C(=O)O)CCC2(C)CCC3(C)C(=CC(=O)C4C5(C)CCC(O)C(C)(C)C5CCC43C)C2C1 (configuration not stated)	29.2 min
CC12CC(OC1=O)C1(C)CCC3(C)C(=CC(=O)C4C5(C)CCC(OC6OC(C(=O)O)C(O)C(O)C6OC6OC(C(=O)O)C(O)C(O)C6O)C(C)(C)C5CCC43C)C1C2 (configuration not stated)	19.8 min
CC(=O)OC1CC(C)(C(=O)O)CC2C3=CC(=O)C4C5(C)CCC(OC6OC(C(=O)O)C(O)C(O)C6OC6OC(C(=O)O)C(O)C(O)C6O)C(C)(CO)C5CCC4(C)C3(C)CCC12C (configuration not stated)	17.8 min
O=C(C=Cc1ccc(O)cc1)c1ccc(OC2OC(CO)C(O)C(O)C2O)cc1O (configuration not stated)	14.5 min
O=C(O)CC(C(=O)O)c1ccc(O)cc1 (configuration not stated)	4.34 min
CC1(CO)CC(O)C2(C)CCC3(C)C(=CC(=O)C4C5(C)CCC(OC6OC(C(=O)O)C(O)C(O)C6OC6OC(C(=O)O)C(O)C(O)C6O)C(C)(C)C5CCC43C)C2C1 (configuration not stated)	16.8 min
CC1(C(=O)O)CCC2(C)CCC3(C)C(=C2C1)C=CC1C2(C)CCC(OC4OC(C(=O)O)C(O)C(O)C4OC4OC(C(=O)O)C(O)C(O)C4O)C(C)(CO)C2CCC13C (configuration not stated)	22.3 min
O=C(C=Cc1ccc(OC2OC(CO)C(O)C(O)C2OC2OCC(O)(CO)C2O)cc1)c1ccc(O)cc1O (configuration not stated)	14 min
CC1(C(=O)O)CCC2(C)CCC3(C)C(=CC(=O)C4C5(C)CCC(OC6OC(C(=O)O)C(O)C(O)C6OC6OC(C(=O)O)C(O)C(O)C6O)C(C)(CO)C5CCC43C)C2C1 (configuration not stated)	20.7 min
CC1(C(=O)OC2OC(CO)C(O)C(O)C2O)CCC2(C)CCC3(C)C(=CC(=O)C4C5(C)CCC(OC6OC(C(=O)O)C(O)C(O)C6OC6OC(C(=O)O)C(O)C(O)C6O)C(C)(C)C5CCC43C)C2C1 (configuration not stated)	17.4 min
O=C(C=Cc1ccc(OC2OC(CO)C(O)C(O)C2O)cc1)c1ccc(O)cc1O (configuration not stated)	14.3 min
O=C1CC(c2ccc(OC3OC(CO)C(O)C(O)C3O)cc2)Oc2cc(O)ccc21 (configuration not stated)	9.89 min
O=C1CC(c2ccc(O)cc2)Oc2cc(OC3OC(CO)C(O)C(O)C3O)ccc21 (configuration not stated)	9.18 min
COc1ccc(-c2coc3cc(OC4OC(CO)C(O)C(O)C4OC4OCC(O)(CO)C4O)ccc3c2=O)cc1 (configuration not stated)	12.2 min
O=C1CC(c2ccc(OC3OC(CO)C(O)C(O)C3O)cc2)Oc2cc(OC3OC(CO)C(O)C(O)C3O)ccc21 (configuration not stated)	6.01 min

Continued, values first:

LC retention time	Compound
14.6 min	O=C1CC(c2ccc(O)cc2)Oc2cc(O)ccc21 (configuration not stated)
12.3 min	COc1ccc(-c2coc3cc(OC4OC(CO)C(O)C(O)C4O)ccc3c2=O)cc1 (configuration not stated)
19.9 min	COc1cc(O)cc2oc(=O)c(-c3ccc(O)cc3O)cc12
15.1 min	COc1cc(O)c2c(=O)c(OC)c(-c3ccc(O)cc3)oc2c1
28.1 min	CC(C)=CCc1c(O)cc2oc(-c3ccc(O)cc3)c(O)c(=O)c2c1O
24.8 min	COc1cc2oc(-c3ccc(O)c(CC=C(C)C)c3)c(O)c2cc1OC
15.1 min	COc1ccc(-c2coc3cc(O)ccc3c2=O)cc1O
24.9 min	CC(C)=CCc1cc(-c2cc(=O)c3c(O)cc(O)cc3o2)cc(O)c1O
26.9 min	CC1(C)C=Cc2c(ccc(-c3coc4cc(O)cc(O)c4c3=O)c2O)O1
8.56 min	O=c1cc(-c2ccc(O)cc2)oc2c(C3OCC(O)C(O)C3O)c(O)c(C3OC(CO)C(O)C(O)C3O)c(O)c12 (configuration not stated)
24.1 min	COc1cc(O)c(-c2coc3cc(O)ccc3c2=O)c(OC)c1CC=C(C)C
26.3 min	C=CC(C)(C)c1cc(C=CC(=O)c2ccc(O)cc2)c(OC)cc1O
27.2 min	COc1c(CC=C(C)C)c(O)cc2oc(=O)c3c4ccc(O)cc4oc3c12
26.1 min	CC(C)=CCc1cc(-c2oc3cc(O)cc(O)c3c(=O)c2O)ccc1O
19 min	COc1ccc(-c2coc3cc(O)ccc3c2=O)cc1
28.7 min	COc1c(CC=C(C)C)c(O)cc2c1CC(c1ccc(O)c(CC=C(C)C)c1O)CO2 (configuration not stated)
